Reference: US20020044948A1, “Methods and compositions for co-stimulation of immunological responses to peptide antigens” (priority 2000, published 2002)

System: E7 peptide-pulsed EL4 cells
Test: Cytotoxic lymphocyte (4-hour 51Cr-release) assay on spleen cells of immunized mice
Assay type: in vivo, C57BL/6 mice
Conditions: C57BL/6 (B6) (H-2b) mice
Experimental: A peptide antigen formulation for use within the present example was prepared in an emulsion by a two-syringe system containing 1:1 incomplete Freund's Adjuvant with 100 μg HPV16 E7 peptide (49-57), 20 μg PCLUS-6.1 helper epitope (see, U.S. Pat. No. 5,939,074; U.S. Pat. No. 5,976,541; U.S. Pat. No. 5,030,449; U.S. Pat. No. 5,081,226; U.S. Pat. No. 5,932,218; U.S. patent application Ser. No. 08/060988, filed May 14, 1993, corresponding to EP 0 710 572 Bi; WO 94/26785; and
U.S. patent application Ser. No. 09/455,076, each incorporated herein by reference), 50,000 U IL-2, 10X PBS and double distilled water. The B7-1 expressing DNA plasmid (400 μg) was prepared in 100 μl water. […]
Procedures to measure CTL activity are well known and are described elsewhere (see, e.g. Chen et al., Cell 71:1093-1102, 1992). […] Supernatants were harvested and counted using a gamma counter. The percentage of specific 51 Cr-release was calculated as follows: 100 X (experimental release−spontaneous release)/(maximum release−spontaneous release). Spontaneous release was determined from target cells incubated without effector cells; maximum release was determined from target cells incubated in the presence of 1% Triton X-100.

## HPV16 E7 peptide(49-57): H2Db binding antigenic peptide of human papilloma virus 16 E7 protein, residues 49-57 (RAHYNIVTF; UniProt P03129 49-57, looked up, fragment)
  Immunogenicity of the peptide (in words): immunogenic
